Converted amounts (≈) assume the structure as drawn. Where two headings read alike, the source gives them in different places.
How the values were obtained:
Type in all cases: cell-based
S. aureus CJ200 = test: MIC, agar diffusion, S. aureus CJ200; conditions: Staphylococcus aureus, read-out: in vitro activities MIC
Description: (§1) In vitro investigations have shown a relatively high potency of compounds of the invention against all bacteria including gram-positive and gram-negative strains (Staphylococci, Streptococci, Corynebacteriae, Mycobacteriae, Proteus, Propionibacterium, Pseudomonas, Neisseriae, E. coli) and fungal strains (Candida and Aspergillus). […] In addition, the studies of post-antibiotic effects point towards a strong bactericidal effect of the compounds of the invention. […] The potency of new polyaminated fusidic acid analogues is estimated by comparing the inhibition of growth of different microorganisms produced by known concentrations of the analogue to be examined and a reference compound such as fusidic acid. The microbiological assay set up is in agreement with the European Pharmacopoeia 3rd edition (1997). It is an agar diffusion method where the same volume of the tested solution is added to cavities in agar. The inhibition zones are function of the concentration of the fusidic acid analogue used. All assays are run with fusidic acid as reference substance.

E. coli HA165 = test: MIC, agar diffusion, E. coli HA165; conditions: Escherichia coli, read-out: in vitro activities MIC
Description: as §1

Asbergillus niger ZM35 = test: MIC, agar diffusion, Asbergillus niger ZM35; conditions: Aspergillus niger, read-out: in vitro activities MIC
Description: as §1

[1] = tested on: Streptococcus pyogenes EC88; test: MIC, agar diffusion, Streptococcus pyogenes EC88; conditions: read-out: in vitro activities MIC
Description: as §1

S. aureus CJ234F = test: MIC, agar diffusion, S. aureus CJ234F; conditions: Staphylococcus aureus; S. aureus CJ234F (MRSA, Fus. resistant); read-out: in vitro activities MIC
Description: as §1

[2] = tested on: Propionibacterium acnes FN33; test: MIC, agar diffusion, Propionibacterium acnes FN33; conditions: Cutibacterium acnes, read-out: in vitro activities MIC
Description: as §1

S. aureus N6 = test: MIC, agar diffusion, S. aureus N6; conditions: Staphylococcus aureus; S. aureus N6 (Fus. resistant); read-out: in vitro activities MIC
Description: as §1

S. epidermis CK5 = test: MIC, agar diffusion, S. epidermis CK5; conditions: Staphylococcus epidermidis, read-out: in vitro activities MIC
Description: as §1

[3] = tested on: Saccaromyces cervisiae ZZ7; test: MIC, agar diffusion, Saccaromyces cervisiae ZZ7; conditions: Saccharomyces cerevisiae, read-out: in vitro activities MIC
Description: as §1

[4] = tested on: Streptococcus faecium EI19; test: MIC, agar diffusion, Streptococcus faecium EI19; conditions: Enterococcus faecium; Streptococcus faecium EI19 (Penicillin resistant); read-out: in vitro activities MIC
Description: as §1

[5] = tested on: Corynebacterium xerosis FF; test: MIC, agar diffusion, Corynebacterium xerosis FF; conditions: read-out: in vitro activities MIC
Description: as §1

S. aureus CJ247 = test: MIC, agar diffusion, S. aureus CJ247; conditions: Staphylococcus aureus, read-out: in vitro activities MIC
Description: as §1

Candida albicans ZA = test: MIC, agar diffusion, Candida albicans ZA; conditions: read-out: in vitro activities MIC
Description: as §1

[6] = tested on: Pseudomonas aeruginosa BA17; test: MIC, agar diffusion, Pseudomonas aeruginosa BA17; conditions: read-out: in vitro activities MIC
Description: as §1

S. aureus CJ234R = test: MIC, agar diffusion, S. aureus CJ234R; conditions: Staphylococcus aureus, read-out: in vitro activities MIC
Description: as §1

[7] = S. aureus CJ234R (MRSA, Rifampicin resistant)

Structure (SMILES)	MIC (S. aureus CJ200) [µg/mL]	MIC (E. coli HA165) [µg/mL]	MIC (Asbergillus niger ZM35) [µg/mL]	MIC [1] [µg/mL]	MIC (S. aureus CJ234F) [µg/mL]	MIC [2] [µg/mL]	MIC (S. aureus N6) [µg/mL]	MIC (S. epidermis CK5) [µg/mL]	MIC [3] [µg/mL]	MIC [4] [µg/mL]	MIC [5] [µg/mL]	MIC (S. aureus CJ247) [µg/mL]	MIC (Candida albicans ZA) [µg/mL]	MIC [6] [µg/mL]	MIC (S. aureus CJ234R; MRSA) [µg/mL]	MIC (S. aureus CJ234R; [7]) [µg/mL]
CC(=O)O[C@H]1C[C@@]2(C)C(C[C@@H](O)C3[C@@]4(C)CC[C@@H](O)[C@@H](C)C4CC[C@@]32C)[C@@H]1[C@H](CCCC(C)C)C(=O)NCCCCNCCCN (stereo partly drawn) [Compound 121, 21-N-{4′-[(3′-aminopropyl)amino]butyl}-17R,20S,24,25-tetrahydrofusid-21-amide]	4 (≈ 6.17 µM)	16 (≈ 24.7 µM)	64 (≈ 98.8 µM)	16 (≈ 24.7 µM)	4 (≈ 6.17 µM)	4 (≈ 6.17 µM)	16 (≈ 24.7 µM)	4 (≈ 6.17 µM)	16 (≈ 24.7 µM)	16 (≈ 24.7 µM)	4 (≈ 6.17 µM)	4 (≈ 6.17 µM)	16 (≈ 24.7 µM)			
CC(=O)O[C@H]1C[C@@]2(C)C(C[C@@H](O)C3[C@@]4(C)CC[C@@H](O)[C@@H](C)C4CC[C@@]32C)[C@@H]1[C@H](CCCC(C)C)C(=O)NCCCCNCCCNCCCCN (stereo partly drawn) [Compound 123, 21-N-[4′-({3′-[(4′-aminobutyl)amino]propyl}amino)butyl]-17R,20S,24,25-tetrahydrofasid-21-amide]	4 (≈ 5.56 µM)	16 (≈ 22.2 µM)	4 (≈ 5.56 µM)	4 (≈ 5.56 µM)	4 (≈ 5.56 µM)	4 (≈ 5.56 µM)	4 (≈ 5.56 µM)	4 (≈ 5.56 µM)	16 (≈ 22.2 µM)	4 (≈ 5.56 µM)	4 (≈ 5.56 µM)	4 (≈ 5.56 µM)	16 (≈ 22.2 µM)	16 (≈ 22.2 µM)		
CC(=O)O[C@H]1C[C@@]2(C)C(C[C@@H](O)C3[C@@]4(C)CC[C@@H](O)[C@@H](C)C4CC[C@@]32C)[C@@H]1[C@H](CCCC(C)C)C(=O)NCCCNCCCCNCCCN (stereo partly drawn) [Compound 125, 21-N-[3′-({4′-[(3′-aminopropyl)amino]butyl}amino)propyl]-17R,20S,24,25-tetrahydrofusid-21-amide]	1 (≈ 1.42 µM)	16 (≈ 22.7 µM)	16 (≈ 22.7 µM)	4 (≈ 5.67 µM)	1 (≈ 1.42 µM)	1 (≈ 1.42 µM)	1 (≈ 1.42 µM)	1 (≈ 1.42 µM)	16 (≈ 22.7 µM)	16 (≈ 22.7 µM)	1 (≈ 1.42 µM)	1 (≈ 1.42 µM)	16 (≈ 22.7 µM)	16 (≈ 22.7 µM)		
CC(=O)O[C@H]1C[C@@]2(C)C(CCC3[C@@]4(C)CC[C@@H](O)[C@@H](C)C4CC[C@@]32C)[C@@H]1[C@H](CCCC(C)C)C(=O)NCCCNCCCN (some centres unmarked) [Compound 131]	4 (≈ 6.47 µM)	16 (≈ 25.9 µM)	16 (≈ 25.9 µM)	4 (≈ 6.47 µM)	4 (≈ 6.47 µM)	4 (≈ 6.47 µM)	4 (≈ 6.47 µM)	4 (≈ 6.47 µM)	16 (≈ 25.9 µM)	4 (≈ 6.47 µM)	4 (≈ 6.47 µM)	4 (≈ 6.47 µM)	16 (≈ 25.9 µM)	4 (≈ 6.47 µM)		
CC(=O)O[C@H]1C[C@@]2(C)C(CCC3[C@@]4(C)CC[C@@H](O)[C@@H](C)C4CC[C@@]32C)[C@@H]1[C@H](CCCC(C)C)C(=O)NCCNCCCNCCN (some centres unmarked) [Compound 133]	4 (≈ 6.18 µM)	16 (≈ 24.7 µM)	32 (≈ 49.5 µM)	4 (≈ 6.18 µM)	4 (≈ 6.18 µM)	4 (≈ 6.18 µM)	4 (≈ 6.18 µM)	4 (≈ 6.18 µM)	32 (≈ 49.5 µM)	4 (≈ 6.18 µM)	4 (≈ 6.18 µM)	4 (≈ 6.18 µM)	32 (≈ 49.5 µM)	16 (≈ 24.7 µM)		
CC(C)CCCC(C(=O)NCCCNCCCCNCCCN)[C@@H]1CC[C@@]2(C)C1C[C@@H](O)C1[C@@]3(C)CC[C@@H](O)[C@@H](C)C3CC[C@@]12C (stereo partly drawn) [Compound 146, 21-N-{[3′-({4′-[(3′-aminopropyl)amino]butyl}amino)propyl]}-16-desacetoxy-17R,20S,24,25-tetrahydrofusid-21-amide]	1 (≈ 1.55 µM)	4 (≈ 6.18 µM)	> 125	1 (≈ 1.55 µM)	1 (≈ 1.55 µM)	1 (≈ 1.55 µM)	1 (≈ 1.55 µM)	1 (≈ 1.55 µM)	4 (≈ 6.18 µM)	1 (≈ 1.55 µM)	1 (≈ 1.55 µM)	1 (≈ 1.55 µM)	> 125	16 (≈ 24.7 µM)		
CC(C)CCCC(C(=O)NCCNCCCNCCN)[C@H]1CC[C@@]2(C)C1CCC1[C@@]3(C)CC[C@@H](O)[C@@H](C)C3CC[C@@]12C (some centres unmarked) [Compound 152, 21-N-[2′-({3′-[(2′-aminoethyl)amino]propyl}amino)ethyl]-11-desoxy-16-desacetoxy-17S,20,24,25-tetrahydrofusid-21-amide]	4 (≈ 6.79 µM)	4 (≈ 6.79 µM)	> 125		4 (≈ 6.79 µM)		4 (≈ 6.79 µM)	2 (≈ 3.4 µM)	> 125		1 (≈ 1.7 µM)	4 (≈ 6.79 µM)	> 125	8 (≈ 13.6 µM)		
CC(C)CCCC(C(=O)NCCCCNCCCN)[C@H]1CC[C@@]2(C)C1CCC1[C@@]3(C)CC[C@@H](O)[C@@H](C)C3CC[C@@]12C (some centres unmarked) [Compound 154, 21-N-{4′-[(3′-aminopropyl)amino]butyl}-11-desoxy-16-desacetoxy-17S,20,24,25-tetrahydrofusid-21-amide]	4 (≈ 6.97 µM)	8 (≈ 13.9 µM)	> 125		4 (≈ 6.97 µM)		4 (≈ 6.97 µM)	1 (≈ 1.74 µM)	> 125		0.5 (≈ 0.871 µM)	4 (≈ 6.97 µM)	> 125	16 (≈ 27.9 µM)		
CC(=O)O[C@H]1C[C@@]2(C)C(C[C@@H](O)C3[C@@]4(C)CC[C@@H](OC(C)=O)[C@@H](C)C4CC[C@@]32C)[C@@H]1[C@H](CCCC(C)C)C(=O)NCCCNCCCNCCCN (stereo partly drawn) [Compound 172, 21-N-[3′-({3′-[(3′-aminopropyl)amino]propyl}amino)propyl]-3-OAc-17R,20S,24,25-tetrahydrofusid-21-amide]	4 (≈ 5.46 µM)	4 (≈ 5.46 µM)	64 (≈ 87.3 µM)	4 (≈ 5.46 µM)	4 (≈ 5.46 µM)	1 (≈ 1.36 µM)	4 (≈ 5.46 µM)	4 (≈ 5.46 µM)	64 (≈ 87.3 µM)		4 (≈ 5.46 µM)	4 (≈ 5.46 µM)	64 (≈ 87.3 µM)	4 (≈ 5.46 µM)	1 (≈ 1.36 µM)	
CC(=O)O[C@H]1C[C@@]2(C)C(CCC3[C@@]4(C)CC[C@@H](OS(=O)(=O)O)[C@@H](C)C4CC[C@@]32C)[C@@H]1[C@H](CCCC(C)C)C(=O)NCCCNCCCCNCCCN (some centres unmarked) [Compound 177, 21-N-[3′-({4′-[(3′-aminopropyl)amino]butyl}amino)propyl]-3-OSO3-11-desoxy-17,20,24,25-tetrahydrofusid-21-amide]	1 (≈ 1.3 µM)	16 (≈ 20.8 µM)	16 (≈ 20.8 µM)	4 (≈ 5.2 µM)	1 (≈ 1.3 µM)	1 (≈ 1.3 µM)	4 (≈ 5.2 µM)	1 (≈ 1.3 µM)	125 (≈ 163 µM)		1 (≈ 1.3 µM)	1 (≈ 1.3 µM)	64 (≈ 83.2 µM)	16 (≈ 20.8 µM)		
CC(=O)O[C@H]1C[C@@]2(C)C(CCC3[C@@]4(C)CC[C@@H](OS(=O)(=O)O)[C@@H](C)C4CC[C@@]32C)[C@@H]1[C@H](CCCC(C)C)C(=O)NCCCNCCCNCCCN (some centres unmarked) [Compound 180]	1 (≈ 1.32 µM)	16 (≈ 21.2 µM)	4 (≈ 5.3 µM)	16 (≈ 21.2 µM)	1 (≈ 1.32 µM)	1 (≈ 1.32 µM)	1 (≈ 1.32 µM)	4 (≈ 5.3 µM)	125 (≈ 166 µM)		1 (≈ 1.32 µM)	1 (≈ 1.32 µM)	64 (≈ 84.8 µM)	64 (≈ 84.8 µM)		
CC(=O)NC[C@H]1CN(c2ccc(N3CCOCC3)c(F)c2)C(=O)O1 [Linezolid, reference compound]	4 (≈ 11.9 µM)			4 (≈ 11.9 µM)	1 (≈ 2.96 µM)	1 (≈ 2.96 µM)		0.25 (≈ 0.741 µM)				1 (≈ 2.96 µM)				16 (≈ 47.4 µM)
C/C(=C\C(=O)OCCCCCCCCC(=O)O)C[C@@H]1OC[C@H](C[C@@H]2O[C@H]2[C@@H](C)[C@H](C)O)[C@@H](O)[C@H]1O [Mupirocin, reference compound]	1 (≈ 2 µM)			1 (≈ 2 µM)	0.5 (≈ 0.999 µM)			0.04 (≈ 0.0799 µM)				0.5 (≈ 0.999 µM)				1 (≈ 2 µM)
